Common to all, as to format: cell-based
Assay [1] deals with Human cardiac fibroblasts (HCFs). In words: Myofibroblast marker expression in human cardiac fibroblasts (RT-PCR, western blot, immunofluorescence). The method, then: Human cardiac fibroblasts (HCFs) (PromoCell) are grown in Fibroblast Growth Medium 3 Supplement Pack (PromoCell) in an environment at 37° C. with controlled atmosphere. The HCFs are grown between passages 3 and 7.
To perform the stimulations, the fibroblasts are seeded at a density of 30 000 cells/cm^2 in complete culture medium. After 24 hours of adhesion, the cell culture medium is replaced with medium not containing growth factor (minimal medium) for 4 hours.
Total mRNA is extracted using a purification kit (RNeasy Mini, Qiagen) then eluted in 30 μL of RNase-free water. The amount of RNA is measured at 260 nm using a spectrophotometer (NanoDrop). The RNA is then converted to cDNA using 200 ng of RNA and according to the same protocol as the tissue RNA. The gene expression study is performed by real-time PCR from 10 ng of cDNA (Table 4).
The cells are lysed at 4° C. in a buffer composed of 10 mMTris-HCl (pH 8), 1 mM EDTA, 150 mMNaCl, 10% NP40, containing a protease inhibitor cocktail (Pierce, Thermo Scientific). The cell lysate obtained is centrifuged at 4° C. and 15000 g for 10 minutes. The supernatant containing solubilized proteins is collected and the amount of proteins determined using a calibration curve of bovine serum albumin (BSA) prepared from a 1 mg/mL BSA solution diluted in the lysis buffer used during sample preparation.
The samples are then used in western blot experiments. To that end, an aliquot containing 30 μg of proteins is taken up in 4× Laemmli buffer containing a reducing agent (Invitrogen) and then heated for 10 minutes at 75° C. before being deposited on an electrophoresis gel (NuPAGE 4-12% Bis-Tris Gel, Invitrogen). After migration of the samples, the proteins are dry-transferred to a nitrocellulose membrane (iBlot 2, Invitrogen). The membrane is blocked for 45 minutes with a Tris buffer containing 0.1% Tween 20 (TBS-T) and 4% BSA. The primary antibody (Table 5) diluted in TBS-T is hybridized for 12 hours at 4° C. and then rinsed for 3×10 minutes with TBS-T. The HRP-coupled secondary antibody (TBS-T) is hybridized for 1 hour. After rinsing, HRP activity is detected using a chemiluminescent substrate (ECL, Pierce). An antibody directed against a normalizing protein (β-tubulin), the expression of which is not modified by the experimental conditions, makes it possible to normalize the quantification and then to express the results semi-quantitatively (% control). Emitted light is captured with a camera (G:BOX). The proteins of interest are visualized as black bands on a white background. The signal thus obtained is quantified by densitometry (Image Lab Software version 4.1) (Table 5).
The cells are fixed for 5 minutes in 70° ethanol at 4° C. and then rinsed with PBS. After 1 hour of blocking in a PBS solution containing 5% BSA, the primary antibody (anti-α-SMA, Dako-0851) diluted 1/50 and then the secondary antibody (anti-mouse antibody) coupled to a fluorescent molecule (Alexa Fluor 488) are incubated for 1.5 hours. Rinses with PBS are performed between each step. The cells are mounted in an aqueous medium containing a nuclear stain (ProLongMountant with DAPI, Invitrogen) before being observed under a fluorescence microscope.
Modulation of α-SMA expression was examined in response to stimulation of HCFs by 50 ng/mL of CD146 for 48 hours.

Assay [2] concerns miR21. Briefly: In vitro induction of miR21.
Assay [3] relates to human renal fibroblasts. In words: α-SMA and vimentin mRNA expression in primary culture of human renal fibroblasts. As to conditions: sCD146 50 ng/ml, versus control without treatment. As for the experimental part:
The effect of sCD146 (50 ng/ml) was examined on primary culture from human fibroblasts. The effect of 500 ng/ml anti-sCD146 mAb administrated either alone (Ac) or with sCD146.
Results are mean values +/−SE of 3 experiments and expressed as fold change versus control condition without treatment.
The effect of anti-sCD146 treatment was observed on the mRNA expression of α-SMA and vimentin in human renal fibroblast in (in vitro) culture.

“Also recorded” adds a separate entry of the source.

In the case of “sCD146: recombinant human soluble form of CD146 corresponding to the shed sCD146, obtained from Biocytex”, the “α-SMA network (indirect immunofluorescence)” value in assay [1] (50 ng/mL) is recorded as “establishment of a smooth muscle actin network”. This substance gave a CD146 expression in assay [1] (50 ng/mL of CD146s, first results n=2) of 2 fold. In assay [1] (50 ng/mL, 48 hours), the “α-SMA protein expression level (western blot)” value was 2.5 fold. Further, in assay [1] (50 ng/mL, 48 hours, n=4), the “α-SMA RNA expression level (overexpression)” value turned out to be 2.5 fold. Besides, in assay [1] (HCFs stimulated by CD146s, preliminary), the “TGF-β expression at the RNA level” value is recorded as “increase in TGF-β expression; also recorded: able to increase TGF-β expression”. In addition, the “expression of RNAs encoding fibronectin and type I collagen” value in assay [1] (semiquantitative RT-PCR, comparable to TGF-β stimulation) was “increase in synthesis of fibronectin and of type I collagen”. In assay [2], the miR21 induction entry is recorded as “significantly induces in vitro miR21”. Moreover, the “α-SMA and vimentin mRNA expression” value in assay [3] was “increase in α-SMA and vimentin mRNA expression”.

(Values after patent US12411143B2, “CD146 and uses thereof as a biomarker and as a therapeutic target in the diagnosis and treatment of fibrosis” (ASSISTANCE PUBLIQUE HÔPITAUX DE MARSEILLE, priority 2018, dated 2025).)
